Laboratory results taken from US20240124464A1, “SUBSTITUTED FUSED BICYCLIC COMPOUND AS KINASE INHIBITOR AND USE THEREOF” (IMPACT THERAPEUTICS (SHANGHAI), INC, priority 2020, published 2024).

How the values were obtained:
NUAK1(h) enzyme = molecular target: T1, NUAK1(h) enzyme (Homo sapiens, UniProt O60285); assay: In vitro NUAK1 enzymatic assay (Eurofins Discovery, [γ-33P]-ATP filter assay); format: biochemical; conditions: 45 μM ATP, 40 min, room temperature; read-out: IC50, inhibitory effect on NUAK1 enzyme activity
T1 construct: purchased Eurofins Discovery
T1 sequence (O60285 1-661): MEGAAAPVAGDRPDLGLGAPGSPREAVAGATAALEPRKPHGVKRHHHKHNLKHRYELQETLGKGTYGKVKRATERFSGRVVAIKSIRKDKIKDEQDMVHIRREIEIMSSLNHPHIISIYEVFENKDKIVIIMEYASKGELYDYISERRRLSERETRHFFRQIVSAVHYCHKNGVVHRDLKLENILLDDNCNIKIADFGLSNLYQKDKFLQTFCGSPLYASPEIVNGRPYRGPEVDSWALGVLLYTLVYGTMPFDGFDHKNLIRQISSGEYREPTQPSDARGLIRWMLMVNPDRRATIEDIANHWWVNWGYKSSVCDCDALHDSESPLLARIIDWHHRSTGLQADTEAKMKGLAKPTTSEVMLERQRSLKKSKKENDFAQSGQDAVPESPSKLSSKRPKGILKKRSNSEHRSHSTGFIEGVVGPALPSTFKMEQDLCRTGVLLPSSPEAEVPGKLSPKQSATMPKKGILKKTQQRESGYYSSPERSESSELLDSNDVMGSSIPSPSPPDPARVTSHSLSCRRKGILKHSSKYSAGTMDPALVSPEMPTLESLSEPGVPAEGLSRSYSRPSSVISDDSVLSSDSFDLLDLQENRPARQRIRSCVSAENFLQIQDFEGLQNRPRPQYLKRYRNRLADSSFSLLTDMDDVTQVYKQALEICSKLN
Experimental: In Vitro Assay to Determine the Inhibitory Effect of Compounds in the Patent on NUAK1 Enzymatic Activity
The in vitro NUAK1 enzymatic assay was carried out at Eurofins Discovery to evaluate the inhibitory effect of the compounds presented in the invention. The assay protocol is as follow: the compound to be tested was mixed with NUAK1(h) enzyme and 300 μM […] substrate in 8 mM MOPS (pH 7.0) buffer containing 0.2 mM EDTA and incubated at room temperature. A Mg/ATP mixture containing 10 mM magnesium acetate and 45 μM [y-33P]-ATP was added to start the reaction. After incubation for 40 min at room temperature, the reaction was terminated by adding 0.5% phosphoric acid. Then, 10 μL of the reaction mix was spotted onto a P30 filter paper followed with four times of wash with 0.425% phosphoric acid solution (4 min each time), and one time wash with methanol. The filter paper was air-dried and counted in a liquid scintillation counter. The values obtained were plotted against the drug concentration and the IC50 was calculated.
Table 1 summarizes the inhibitory effect (IC50) of compounds tested on the NUAK1 enzyme activity in the present invention. ++++ indicates IC50≤10 nM; […]; ++ indicates 100 nM<IC50≤1 μM; + indicates IC50>1 μM.

NUAK2(h) enzyme = molecular target: T2, NUAK2(h) enzyme (Homo sapiens, UniProt Q9H093); assay: In vitro NUAK2 enzymatic assay (Eurofins Discovery, [γ-33P]-ATP filter assay); format: biochemical; conditions: 45 μM ATP, 40 min, room temperature; read-out: IC50, inhibitory effect on NUAK2 enzyme activity
T2 construct: purchased Eurofins Discovery
T2 sequence (Q9H093 1-628): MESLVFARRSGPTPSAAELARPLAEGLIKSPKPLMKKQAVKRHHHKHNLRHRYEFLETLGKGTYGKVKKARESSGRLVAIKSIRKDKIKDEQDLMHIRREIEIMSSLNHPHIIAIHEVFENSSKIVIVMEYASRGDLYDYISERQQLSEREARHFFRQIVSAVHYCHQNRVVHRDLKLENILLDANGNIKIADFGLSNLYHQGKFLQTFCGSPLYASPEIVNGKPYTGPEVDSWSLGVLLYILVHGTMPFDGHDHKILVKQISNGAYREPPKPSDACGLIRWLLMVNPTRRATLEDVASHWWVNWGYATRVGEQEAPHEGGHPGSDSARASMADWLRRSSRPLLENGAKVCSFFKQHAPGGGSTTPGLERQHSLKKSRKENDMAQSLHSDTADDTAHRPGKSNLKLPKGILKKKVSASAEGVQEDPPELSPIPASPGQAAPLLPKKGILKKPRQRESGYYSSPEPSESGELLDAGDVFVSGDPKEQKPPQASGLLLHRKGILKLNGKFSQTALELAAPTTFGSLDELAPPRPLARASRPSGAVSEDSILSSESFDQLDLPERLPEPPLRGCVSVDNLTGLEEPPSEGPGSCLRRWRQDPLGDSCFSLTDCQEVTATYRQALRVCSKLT
Experimental: In Vitro Assay to Determine the Inhibitory Effect of Compounds in the Patent on NUAK2 Enzymatic Activity
The in vitro NUAK2 enzymatic assay was carried out at Eurofins Discovery to evaluate the inhibitory effect of the compounds presented in the invention. The assay protocol is as follow: the compound to be tested was mixed with NUAK2(h) enzyme and 300 […] substrate in 8 mM MOPS (pH 7.0) buffer containing 0.2 mM EDTA. A Mg/ATP mixture containing 10 mM magnesium acetate and 45 μM [γ-33P]-ATP was added to start the reaction. After incubation for 40 min at room temperature, the reaction was terminated by adding 0.5% phosphoric acid. Then 10 μL of the reaction mix was spotted onto a P30 filter paper. The filter paper was washed four times with 0.425% phosphoric acid with 4 min for each wash, and one time with methanol. The filter paper was air-dried and counted in a liquid scintillation counter. The values obtained were plotted against the drug concentration and the IC50 was calculated.
Table 1 summarizes the inhibitory effect (IC50) of compounds on the NUAK2 enzyme activity in the present invention. ++++ indicates IC50≤10 nM; +++ indicates 10 nM<IC50≤100 nM; ++ indicates 100 nM<IC50≤1 μM; + indicates IC50>1 μM.

Row | IC50 (NUAK1(h) enzyme) [µM] | IC50 (NUAK2(h) enzyme) [µM] | Structure (SMILES)
1 | 0.1 to 1 | > 1 | COc1cc(N2CCN(C)CC2)ccc1Nc1ncc2c(n1)N(C1CC1)C(=O)NC2 [Example 3]
2 | 0.1 to 1 | 0.1 to 1 | COc1cc(N2CCN(C)CC2)ccc1Nc1ncc2c(n1)N(C1CCCC1)C(=O)N(C)C2 [Example 4, 1-cyclopentyl-7-((2-methoxy-4-(4-methylpiperazin-1-yl)phenyl)amino)-3-methyl-3,4-dihydropyrimido[4,5-d]pyrimidin-2(1H)-one]
3 | > 1 | 0.1 to 1 | CCOc1cc(N2CCN(C)CC2)ccc1Nc1ncc2cnc(=O)n(C3CCCC3)c2n1 [Example 7, 1-cyclopentyl-7-((2-ethoxy-4-(4-methylpiperazin-1-yl)phenyl)amino)pyrimido[4,5-d]pyrimidin-2(1H)-one]
4 | > 1 | > 1 | CC(C)Oc1cc(N2CCN(C)CC2)ccc1Nc1ncc2cnc(=O)n(C3CCCC3)c2n1 [Example 8, 1-cyclopentyl-7-((2-isopropoxy-4-(4-methylpiperazin-1-yl)phenyl)amino)pyrimido[4,5-d]pyrimidin-2(1H)-one]
5 | > 1 | > 1 | CN1CCN(c2ccc(Nc3ncc4cnc(=O)n(C5CCCC5)c4n3)c(OC(F)(F)F)c2)CC1 [Example 9, 1-cyclopentyl-7-((4-(4-methylpiperazin-1-yl)-2-(trifluoromethoxy)phenyl)amino)pyrimido[4,5-d]pyrimidin-2(1H)-one]
6 | 0.1 to 1 | 0.1 to 1 | CN1CCN(c2ccc(Nc3ncc4cnc(=O)n(C5CCCC5)c4n3)c(Cl)c2)CC1 [Example 11, 7-((2-chloro-4-(4-methylpiperazin-1-yl)phenyl)amino)-1-cyclopentylpyrimido[4,5-d]pyrimidin-2(1H)-one]
7 | 0.1 to 1 | 0.1 to 1 | CN1CCN(c2ccc(Nc3ncc4cnc(=O)n(C5CCCC5)c4n3)c(Br)c2)CC1 [Example 12, 7-((2-bromo-4-(4-methylpiperazin-1-yl)phenyl)amino)-1-cyclopentylpyrimido[4,5-d]pyrimidin-2(1H)-one]
8 | > 1 | > 1 | COc1cc(N2CCN(C)CC2)ccc1Nc1nc(C)c2cnc(=O)n(C3CCCC3)c2n1 [Example 13, 1-cyclopentyl-7-((2-methoxy-4-(4-methylpiperazin-1-yl)phenyl)amino)-5-methylpyrimido[4,5-d]pyrimidin-2(1H)-one]
9 | 0.1 to 1 | 0.1 to 1 | COc1cc(N2CCN(C)CC2)ccc1Nc1ncc2cnc(=O)n(C3CCC3)c2n1 [Example 14, 1-cyclobutyl-7-((2-methoxy-4-(4-methylpiperazin-1-yl)phenyl)amino)pyrimido[4,5-d]pyrimidin-2(1H)-one]
10 | 0.1 to 1 | > 1 | COc1cc(N2CCN(C)CC2)ccc1Nc1ncc2cnc(=O)n(C3CC3)c2n1 [Example 15, 1-cyclopropyl-7-((2-methoxy-4-(4-methylpiperazin-1-yl)phenyl)amino)pyrimido[4,5-d]pyrimidin-2(1H)-one]
11 | > 1 | 0.1 to 1 | COc1cc(N2CCN(C)CC2)ccc1Nc1ncc2cnc(=O)n(C3CCOCC3)c2n1 [Example 16, 7-((2-methoxy-4-(4-methylpiperazin-1-yl)phenyl)amino)-1-(tetrahydro-2H-pyran-4-yl)pyrimido[4,5-d]pyrimidin-2(1H)-one]
12 | > 1 | 0.1 to 1 | COc1cc(N2CCN(C)CC2)ccc1Nc1cc2c(cn1)cc(C#N)c(=O)n2C1CCCC1 [Example 25, 1-cyclopentyl-7-((2-methoxy-4-(4-methylpiperazin-1-yl)phenyl)amino)-2-oxo-1,2-dihydro-1,6-naphthyridine-3-carbonitrile]
13 | 0.1 to 1 | > 1 | COc1cc(N2CCN(C)CC2)ccc1Nc1ncc2c(n1)N(C1CC1)C(=O)CC2 [Example 30]
14 | 0.1 to 1 | 0.1 to 1 | COc1cc(N2CCN(C)CC2)ccc1Nc1ncc2c(n1)N(C1CCCC1)C(=O)CO2 [Example 31, 8-cyclopentyl-2-((2-methoxy-4-(4-methylpiperazin-1-yl)phenyl)amino)-6H-pyrimido[5,4-b][1,4]oxazin-7(8H)-one]
15 | 0.1 to 1 | 0.1 to 1 | COc1cc(N2CCN(C)CC2)ccc1Nc1ncc2c(n1)N(C1CCOCC1)C(=O)NC2 [Example 33, 7-((2-methoxy-4-(4-methylpiperazin-1-yl)phenyl)amino)-1-(tetrahydro-2H-pyran-4-yl)-3,4-dihydropyrimido[4,5-d]pyrimidin-2(1H)-one]
16 | 0.01 to 0.1 | 0.01 to 0.1 | COc1cc(N2CCN(C)CC2)ccc1Nc1ncc2cncc(C3CCCC3)c2n1 [Example 34, 8-cyclopentyl-N-(2-methoxy-4-(4-methylpiperazin-1-yl)phenyl)pyrido[4,3-d]pyrimidin-2-amine]
17 | 0.01 to 0.1 | 0.01 to 0.1 | COc1cc(N2CCN(C)CC2)ccc1Nc1ncc2cncc(C3=CCCC3)c2n1 [Example 35, 8-(cyclopent-1-en-1-yl)-N-(2-methoxy-4-(4-methylpiperazin-1-yl)phenyl)pyrido[4,3-d]pyrimidin-2-amine]
18 | > 1 | 0.1 to 1 | COc1cc(N2CCN(C)CC2)ccc1Nc1ncc2c(C)c(C(C)=O)c(=O)n(C3CCCC3)c2n1 [Example 36, 6-acetyl-8-cyclopentyl-2-((2-methoxy-4-(4-methylpiperazin-1-yl)phenyl)amino)-5-methylpyrido[2,3-d]pyrimidin-7(8H)-one]
19 | > 1 | 0.1 to 1 | COc1cc(N2CCNCC2)ccc1Nc1ncc2c(C)c(C(C)=O)c(=O)n(C3CCCC3)c2n1 [Example 37, 6-acetyl-8-cyclopentyl-2-((2-methoxy-4-(piperazin-1-yl)phenyl)amino)-5-methylpyrido[2,3-d]pyrimidin-7(8H)-one]
20 | 0.01 to 0.1 | 0.1 to 1 | CCC(=O)Nc1cccc(Oc2nc(Nc3ccc(N4CCN(C)CC4)cc3OC)ncc2I)c1 [HTH-02-006, reference compound]
